Data from US11883423B2, “Nucleobase analogue derivatives and their applications” (BOARD OF REGENTS, THE UNIVERSITY OF TEXAS SYSTEM, priority 2014, dated 2024).

Assays:
[1] = Octanol-water (PBS 7.4) partition coefficient; assay type: physicochemical; conditions: in octanol under the test conditions
Experimental: The octanol-water partition coefficient of Gem-DHA was determined using a previously reported method with minor modifications (Hsu CH et al. Pharm Res. 2003, 20(6), 918-925). Briefly, octanol and PBS (7.4, 0.01 M) were mutually saturated for 24 h. Gem-DHA was dissolved in octanol (0.4 mg/ml, PBS-saturated) and 10 μl of the solution were withdrawn and diluted with methanol to measure Gem-DHA concentration using HPLC (C1) PBS was added to octanol at a volume ratio (VPBS/Voct) of 20:1 into a sealed vial under nitrogen, and the mixture was agitated vigorously at room temperature using a horizontal orbital shaker at 250 rpm (Max Q 2000, Thermo Scientific, Waltham, Mass.) while protected from light. After 5 h, the mixture was centrifuged (14,000 rpm, 15 min) and the concentration of Gem-DHA in the octanol layer was determined using HPLC (C2). Partition coefficient (Koctiwater) was calculated using the following equation: […]
The partition coefficient (octanol/PBS 7.4) of Gem-DHA was also measured using an indirect method by determining the concentration of the drug in octanol, before and after partitioning.

[2] = Chemical stability in Tween 80/ethanol/water formulation (HPLC); assay type: physicochemical; conditions: for First order degradation rate constant k: aqueous formulation, mean ± SD (n=3)
Experimental: Gem-DHA was solubilized into an aqueous formulation that contains Tween 80 (10%, w/v) and ethanol (5.5%, v/v) (referred to as the Tween 80/ethanol/water formulation) to evaluate its in vivo activity. The stability of Gem-DHA in this formulation was evaluated in crimp-sealed amber glass vials under nitrogen atmosphere. Briefly, 150 μl of the Gem-DHA aqueous solution at a concentration of about 7 mg/ml were added to the amber glass vials under nitrogen atmosphere, and the vials were crimp-sealed with aluminum seals over rubber lids. At predetermined time intervals, 10 μl of the solution were diluted with 90 μl of methanol and mixed, and the concentration was measured using HPLC. Stability tests were carried out at room temperature (˜22° C.) or 4° C. in triplicates. Vitamin E was added in the formulation to a final concentration of 0.01% or 0.04% (v/v) to evaluate the effect of vitamin E on the chemical stability of Gem-DHA.
The degradation was slower at 4° C. […] Indeed, it was reported that a higher concentration of vitamin E may not necessarily have a higher anti-oxidative activity, as higher concentrations may sometimes lead to opposite effects (Owen S C. In: Rowe R C, Sheskey P J, Owen S C Eds, Handbook of Pharmaceutical Excipients. London, Pharmaceutical Press, 2006; 32-35).
To study the effect of temperature on the chemical stability of Gem-DHA, the Gem-DHA formulation in crimp-sealed vials under nitrogen was stored in room temperature, 37° C., or 60° C., protected from light. Sampling and analyses were carried out at pre-determined time points as described above. The first order degradation reaction equation was used to calculate the values of the reaction rate (k) at different temperatures (Table 2). An Arrhenius plot was constructed by plotting the In k values vs. 1/T to calculate the activation energy (Ea, in kcal/mol). The activation energy of the chemical reaction was calculated to be 12.86 kcal/mol (FIG. 2C).

[3] = Solubility in ethanol or Tween 80; assay type: physicochemical
Panc-02 cells = experiment: Cytotoxicity, LDH assay, Panc-02 cells; assay type: cell-based, mouse; conditions: 48 h
Experimental: The cytotoxic activity of Gem-DHA was also evaluated using an LDH assay kit (Takara Clontech). Panc-02 cells were seeded in 96-well plates at 1,500 cells/well and incubated at 37° C. and 5% CO2 for 24 h, followed by treatment with Gem-DHA or gemcitabine HCl as mentioned above for 48 h. LDH activity in the cell culture medium was determined following the manufacturer's instruction.

Panc-02 tumors = experiment: Antitumor activity against s.c. Panc-02 tumors in C57BL/6 mice; assay type: in vivo
Experimental: Therefore, the in vivo anti-tumor activity of Gem-DHA was also evaluated and compared to that of DHA alone in male C57BL/6 mice (6-8 weeks, Charles River) with subcutaneously (s.c.)
implanted Panc-02 tumors. Briefly, 1×10^6 cells were s.c. injected in the right flank of mice. Sixteen days later, mice were randomized into groups (n=12) and i.p. injected with Gem-DHA (˜55 mg/kg, […]) or DHA (˜33 mg/kg, ˜0.1 mmole/kg). Mice in the control group were i.p. injected with sterile 5% mannitol (w/v). Gem-DHA and DHA was dissolved in a Tween 80/ethanol/water solution with 5% (w/v) of mannitol. The doses were based on the average weight of mice in the same group on the first day of injection. The treatment was repeated twice a week for up to 6 doses. Tumor growth was monitored using a digital caliper, and tumor volume was calculated based on the longest diameter (L1) and the shortest diameter (L2) of each tumor using the equation of V=½×(L1×L2×L2).

[4] = Plasma pharmacokinetics after i.v. injection; assay type: in vivo, C57BL/6 mice; conditions: 75 mg/kg
Experimental: Healthy female C57BL/6 mice (6-8 weeks) were injected intravenously (i.v.) with Gem-DHA solution at a dose of 75 mg/kg via the tail vein. At pre-determined time intervals (5, 15, 30, 60, 120, and 180 min), 3 mice were euthanized at each time point to collect plasma samples. Gem-DHA was extracted twice using ethyl acetate and analyzed using HPLC. Data were analyzed using the Pharsight WinNonlin software (Sunnyvale, Calif.).

[5] = Biodistribution in TC-1 tumor-bearing mice; assay type: in vivo, C57BL/6 mice; conditions: 90 min after i.v. 75 mg/kg
Experimental: A biodistribution study was carried out in TC-1 tumor-bearing C57BL/6 mice. When tumor diameters reached 7-8 mm (i.e., about 4 weeks after tumor cell injection), mice were injected via the tail vein with a Gem-DHA solution (75 mg/kg). Ninety minutes later, mice were euthanized to collect tumors and major organs (e.g., liver, kidneys, spleen, lung, heart, and pancreas). Tissues were homogenized, and Gem-DHA was extracted using ethyl acetate as mentioned above and analyzed using HPLC.

With `CC/C=C\C/C=C\C/C=C\C/C=C\C/C=C\C/C=C\CCC(=O)Nc1ccn(C2OC(CO)C(O)C2(F)F)c(=O)n1` (centres unmarked) [Gem-DHA, 4-(N)-Docosahexaenoyl Difluorodeoxycytidine] the “Time stable in octanol” value [1] was “at least 18 h”, the “Degradation in Tween 80/ethanol/water formulation” value ([2]; 4° C., compared with room temperature) was “slower” and the “Activation energy (Ea) of the degradation” value ([2]; Arrhenius plot of ln k vs 1/T) was 12.86 kcal/mol. For the same compound, the “First order degradation rate constant k” value ([2]; 37° C.) was 0.042 ± 0.005 h⁻¹, the “First order degradation rate constant k” value ([2]; 60° C.) was 0.106 ± 0.009 h⁻¹ and the “First order degradation rate constant k” value ([2]; room temperature (~22° C.)) was 0.018 ± 0.001 h⁻¹. The “Degradation in Tween 80/ethanol/water formulation” value ([2]; room temperature (~22° C.)) was “found to degrade at room temperature”, the “Degradation in Tween 80/ethanol/water formulation” value ([2]; with vitamin E 0.01% or 0.04%, 0.01% more effective than 0.04%) was “slower in the presence of vitamin E” and the “Solubility in ethanol or Tween 80” value [3] was “freely soluble”. The “Cytotoxicity, LDH assay (comparison)” value (Panc-02 cells) was “more cytotoxic than gemcitabine HCl”, the “Tolerability (body weights)” value (Panc-02 tumors; Panc-02 tumor-bearing mice, dosing regimen tested) was “well tolerated” and the “Inhibition of Panc-02 tumor growth” value (Panc-02 tumors; i.p., ~0.1 mmole/kg, twice a week, up to 6 doses) was “significantly inhibited the tumor growth”. For the same compound, the “Elimination from plasma (model)” value [4] was “follows a bi-exponential model” and the Distribution among organs [5] was “high percent of the injected Gem-DHA was in mouse pancreas”.
